Assays:
[1] = tested on: Bax protein in MDA-MB-231 cells; experiment: anti-Bax antibody flow cytometry; format: cell-based, human; settings: MDA-MB-231, concentration not stated (5 or 10 µM), 24 h
Experimental: (§1) The effect of the tested compounds on the intrinsic mitochondrial pathway of programmed cell death was further assessed. For this purpose, the concentration of the proapoptotic Bax protein from the Bcl-2 family was examined. The concentration of this protein was analyzed in breast cancer cells after treatment with novel compounds at concentrations of 1 and 5 µM for the MCF-7 line and 5 and 10 µM for the MDA-MB-231 line.
(§2) An anti-Bax FITC-conjugated antibody was applied to evaluate the effect of tested compounds on the concentration of Bax protein in this experiment. First, MCF-7 and MDA-MB-231 cells were seeded into 6-well plates at 5 × 10^5 cells per well. Test compounds 2b, 12b, and 14b were then added at concentrations of 1 and 5 µM and 5 and 10 µM for MCF-7 and MDA-MB-231, respectively. The concentration of doxorubicin as a reference compound was 1 and 5 µM for both lines. After 24 h of incubation, cells were harvested, centrifuged, washed with 1 mL of PBS, and then fixed with 4% paraformaldehyde for 15 min at RT. After removal of the paraformaldehyde, cells were washed with PBS, then resuspended in 0.5 mL of cold 90% methanol, and frozen at −20 °C. […] The prepared samples were read immediately using the BD FACS Canto II flow cytometer (Becton Dickinson Biosciences, San Jose, CA, USA).

[2] = tested on: IGROV1; settings: human, 48 h
[3] = tested on: Bax protein in MCF-7 cells; experiment: anti-Bax antibody flow cytometry; format: cell-based, human; settings: MCF-7, 5 μM, 24 h
Experimental: as §1, §2

[4] = tested on: caspase-3 in MCF-7 cells; experiment: caspase-3 ELISA; format: cell-based, human; settings: MCF-7, 1 μM, 24 h
Experimental: To confirm the activity of the caspase pathway, an effector caspase-3 was assayed on MCF-7 and MDA-MB-231 cell lines after 24 h of treatment using the ELISA method. Novel 4-thiazolidinone derivatives were tested in concentrations of 1 and 5 μM for the MCF-7 cell line and 5 and 10 μM for the MDA-MB-231 cell line.
Using a SimpleStep ELISA kit (Abcam, Cambridge, UK), we determined the levels of cytochrome C and caspase-3 in cells’ lysates with 2b, 12b, and 14b (1 and 5 μM for the MCF-7 cell line and 5 and 10 μM for the MDA-MB-231) and doxorubicin in concentrations of 1 and 5 μM for both lines after 24 h incubation. Assays were performed according to the manufacturer’s protocols.

[5] = tested on: MDA-MB-468; settings: human, 48 h

## CC(C(=O)O)N1C(=O)/C(=C/C=C/c2ccc([N+](=O)[O-])o2)SC1=S (centres unmarked) [2b, 2-((Z)-5-((E)-3-(5-Nitrofuran-2-yl)allylidene)-4-oxo-2-thioxothiazolidin-3-yl)propanoic acid]
[1]
  Bax-positive cell population: 26.33%

## O=C(O)CCCN1C(=O)/C(=C/C=C/c2ccc([N+](=O)[O-])o2)SC1=S [13b, 4-((Z)-5-((E)-3-(5-Nitrofuran-2-yl)allylidene)-4-oxo-2-thioxothiazolidin-3-yl)butanoic acid]
[2]
  CC50: 7.77 µM

## O=C(O)CCCCCN1C(=O)/C(=C/C=C/c2ccc([N+](=O)[O-])o2)SC1=S [14b, 6-((Z)-5-((E)-3-(5-nitrofuran-2-yl)allylidene)-4-oxo-2-thioxothiazolidin-3-yl)hexanoic acid]
[3]
  Bax-positive cell population: 14.67%
[4]
  change of caspase-3 concentration: statistically significant result
[5]
  CC50: 4.29 µM

— PMC12655351, “Synthesis and Anticancer Activity Evaluation of New 5-((5-Nitrofuran-2-yl)allylidene)-2-thioxo-4-thiazolidinones” (Pharmaceuticals, 2025)
